Measurements reported in US10004701B2, “Methods and compositions for treating infection” (UNIVERSITY OF ROCHESTER, priority 2012, dated 2018).
Structures can show the parent of a compound that is named as a salt. Where two headings read alike, the source gives them in different places.

Legend:
Assay in all cases: AK assay 384-well format, Prestwick library screening
E. faecium = format: cell-based, Enterococcus faecium; details: Enterococcus faecium, 3 h, 50 μM final drug concentration
K. pneumoniae = format: cell-based, Klebsiella pneumoniae; details: Klebsiella pneumoniae, 3 h, 50 μM final drug concentration
E. cloacae = format: cell-based, Enterobacter cloacae; details: Enterobacter cloacae, 3 h, 50 μM final drug concentration
P. aeruginosa = format: cell-based, Pseudomonas aeruginosa; details: Pseudomonas aeruginosa, 3 h, 50 μM final drug concentration
[1] = tested on: S. aureus strain USA300-0114; format: cell-based, Staphylococcus aureus; details: Staphylococcus aureus, USA300, 3 h, 50 μM final drug concentration
E. coli = format: cell-based, Escherichia coli; details: Escherichia coli, 3 h, 50 μM final drug concentration
[2] = tested on: A. baumannii strain 98-37-09; format: cell-based, Acinetobacter baumannii; details: Acinetobacter baumannii, 983709, 3 h, 50 μM final drug concentration
[3] = planktonic, cutoff for positive 3-fold increase, read-out: AK-based Prestwick Library Screening Results, E. faecium (fold increase in extracellular AK activity)
[4] = planktonic, cutoff for positive 3-fold increase, read-out: AK-based Prestwick Library Screening Results, K. pneumoniae (fold increase in extracellular AK activity)
[5] = planktonic, cutoff for positive 3-fold increase, read-out: AK-based Prestwick Library Screening Results, E. cloacae (fold increase in extracellular AK activity)
[6] = planktonic, cutoff for positive 3-fold increase, read-out: AK-based Prestwick Library Screening Results, P. aeruginosa (fold increase in extracellular AK activity)
[7] = planktonic, cutoff for positive 3-fold increase, read-out: AK-based Prestwick Library Screening Results, S. aureus (fold increase in extracellular AK activity)
[8] = planktonic, cutoff for positive 3-fold increase, read-out: AK-based Prestwick Library Screening Results, E. coli (fold increase in extracellular AK activity)
[9] = planktonic, cutoff for positive 3-fold increase, read-out: AK-based Prestwick Library Screening Results, A. baumannii (fold increase in extracellular AK activity)
[10] = planktonic E. faecium, positive cutoff 3-fold increase, read-out: AK-based Prestwick library screening result, E. faecium (fold increase in extracellular AK activity)
[11] = planktonic K. pneumoniae, positive cutoff 3-fold increase, read-out: AK-based Prestwick library screening result, K. pneumoniae (fold increase in extracellular AK activity)
[12] = planktonic E. cloacae, positive cutoff 3-fold increase, read-out: AK-based Prestwick library screening result, E. cloacae (fold increase in extracellular AK activity)
[13] = planktonic P. aeruginosa, positive cutoff 3-fold increase, read-out: AK-based Prestwick library screening result, P. aeruginosa (fold increase in extracellular AK activity)
[14] = planktonic S. aureus, positive cutoff 3-fold increase, read-out: AK-based Prestwick library screening result, S. aureus (fold increase in extracellular AK activity)
[15] = planktonic E. coli, positive cutoff 3-fold increase, read-out: AK-based Prestwick library screening result, E. coli (fold increase in extracellular AK activity)
[16] = planktonic A. baumannii, positive cutoff 3-fold increase, read-out: AK-based Prestwick library screening result, A. baumannii (fold increase in extracellular AK activity)

With `CC(=O)O[C@]1(C(C)=O)CC[C@H]2[C@@H]3C=C(C)C4=CC(=O)CC[C@]4(C)[C@H]3CC[C@@]21C` [Megestrol acetate] the fold induction at 50 µM (E. faecium; cutoff for positive-scoring molecules 3-fold increase, read-out: AK-based Prestwick Library Screening Results, E. faecium (fold increase in extracellular AK activity)) was 1.2, the fold induction at 50 µM (K. pneumoniae; cutoff for positive-scoring molecules 3-fold increase, read-out: AK-based Prestwick Library Screening Results, K. pneumoniae (fold increase in extracellular AK activity)) was 1 and the fold induction at 50 µM (E. cloacae; cutoff for positive-scoring molecules 3-fold increase, read-out: AK-based Prestwick Library Screening Results, E. cloacae (fold increase in extracellular AK activity)) was 1.6. The fold induction at 50 µM (P. aeruginosa; cutoff for positive-scoring molecules 3-fold increase, read-out: AK-based Prestwick Library Screening Results, P. aeruginosa (fold increase in extracellular AK activity)) was 1.2, the fold induction at 50 µM ([1]; cutoff for positive-scoring molecules 3-fold increase, read-out: AK-based Prestwick Library Screening Results, S. aureus (fold increase in extracellular AK activity)) was 0.9 and the fold induction at 50 µM (E. coli; cutoff for positive-scoring molecules 3-fold increase, read-out: AK-based Prestwick Library Screening Results, E. coli (fold increase in extracellular AK activity)) was 1.1. The fold induction at 50 µM ([2]; cutoff for positive-scoring molecules 3-fold increase, read-out: AK-based Prestwick Library Screening Results, A. baumannii (fold increase in extracellular AK activity)) was 1.2.
In the case of `CNC[C@H](O)[C@@H](O)[C@H](O)[C@H](O)CO` [Meglumine], the fold induction at 50 µM (E. faecium; planktonic, […], read-out: AK-based Prestwick Library Screening Results, E. faecium (fold increase in extracellular AK activity)) is reported as 0.8, the fold induction at 50 µM (K. pneumoniae; planktonic, […], read-out: AK-based Prestwick Library Screening Results, K. pneumoniae (fold increase in extracellular AK activity)) is reported as 0.7 and the fold induction at 50 µM (E. cloacae; planktonic, […], read-out: AK-based Prestwick Library Screening Results, E. cloacae (fold increase in extracellular AK activity)) is reported as 0.6. It also gave a fold induction at 50 µM (P. aeruginosa; planktonic, […], read-out: AK-based Prestwick Library Screening Results, P. aeruginosa (fold increase in extracellular AK activity)) of 0.5, a fold induction at 50 µM ([1]; planktonic, […], read-out: AK-based Prestwick Library Screening Results, S. aureus (fold increase in extracellular AK activity)) of 0.5 and a fold induction at 50 µM (E. coli; planktonic, […], read-out: AK-based Prestwick Library Screening Results, E. coli (fold increase in extracellular AK activity)) of 0.5. It also gave a fold induction at 50 µM ([2]; planktonic, […], read-out: AK-based Prestwick Library Screening Results, A. baumannii (fold increase in extracellular AK activity)) of 0.5.
`COc1ccc2[nH]cc(CCNC(C)=O)c2c1` [Melatonin] was tested, and the fold induction at 50 µM (E. faecium; [3]) was 1, the fold induction at 50 µM (K. pneumoniae; [4]) was 0.8 and the fold induction at 50 µM (E. cloacae; [5]) was 1.4. It also gave a fold induction at 50 µM (P. aeruginosa; [6]) of 1.1, a fold induction at 50 µM [1, 7] of 1.3 and a fold induction at 50 µM (E. coli; [8]) of 0.9. The fold induction at 50 µM [2, 9] was 1.2.
With `Cc1cnc(NC(=O)C2=C(O)c3ccccc3S(=O)(=O)N2C)s1` [Meloxicam] the fold induction at 50 µM (E. faecium; planktonic E. faecium, cutoff for positive-scoring molecules 3-fold increase, read-out: AK-based Prestwick Library Screening Results, E. faecium (increase in extracellular AK activity)) was 0.9, the fold induction at 50 µM (K. pneumoniae; planktonic K. pneumoniae, cutoff for positive-scoring molecules 3-fold increase, read-out: AK-based Prestwick Library Screening Results, K. pneumoniae (increase in extracellular AK activity)) was 0.8 and the fold induction at 50 µM (E. cloacae; planktonic E. cloacae, cutoff for positive-scoring molecules 3-fold increase, read-out: AK-based Prestwick Library Screening Results, E. cloacae (increase in extracellular AK activity)) was 1.2. The fold induction at 50 µM (P. aeruginosa; planktonic P. aeruginosa, cutoff for positive-scoring molecules 3-fold increase, read-out: AK-based Prestwick Library Screening Results, P. aeruginosa (increase in extracellular AK activity)) was 0.9, the fold induction at 50 µM ([1]; planktonic S. aureus, cutoff for positive-scoring molecules 3-fold increase, read-out: AK-based Prestwick Library Screening Results, S. aureus (increase in extracellular AK activity)) was 2 and the fold induction at 50 µM (E. coli; planktonic E. coli, cutoff for positive-scoring molecules 3-fold increase, read-out: AK-based Prestwick Library Screening Results, E. coli (increase in extracellular AK activity)) was 1. The fold induction at 50 µM ([2]; planktonic A. baumannii, cutoff for positive-scoring molecules 3-fold increase, read-out: AK-based Prestwick Library Screening Results, A. baumannii (increase in extracellular AK activity)) was 0.9.
`CC12CC3CC(C)(C1)CC(N)(C3)C2` [Memantine Hydrochloride] gave a fold induction at 50 µM (E. faecium; [10]) of 0.9, a fold induction at 50 µM (K. pneumoniae; [11]) of 0.5 and a fold induction at 50 µM (E. cloacae; [12]) of 0.7. The fold induction at 50 µM (P. aeruginosa; [13]) was 0.6, the fold induction at 50 µM [1, 14] was 0.6 and the fold induction at 50 µM (E. coli; [15]) was 0.6. For the same compound, the fold induction at 50 µM [2, 16] was 0.7.
`CC1=CC(=O)c2ccccc2C1=O` [Menadione] gave a fold induction at 50 µM (E. faecium; [3]) of 1.1, a fold induction at 50 µM (K. pneumoniae; [4]) of 1 and a fold induction at 50 µM (E. cloacae; [5]) of 1.5. It also gave a fold induction at 50 µM (P. aeruginosa; [6]) of 1.2, a fold induction at 50 µM [1, 7] of 1.4 and a fold induction at 50 µM (E. coli; [8]) of 1. For the same compound, the fold induction at 50 µM [2, 9] was 1.
For `C[N+]1(C)CCCC(OC(=O)C(O)(c2ccccc2)c2ccccc2)C1` (stereo not shown) [Mepenzolate bromide], the fold induction at 50 µM (E. faecium; planktonic, cutoff for positive-scoring molecules 3-fold increase, read-out: AK-based Prestwick Library Screening Results, E. faecium (fold increase in extracellular AK activity)) was 1, the fold induction at 50 µM (K. pneumoniae; planktonic, cutoff for positive-scoring molecules 3-fold increase, read-out: AK-based Prestwick Library Screening Results, K. pneumoniae (fold increase in extracellular AK activity)) was 0.6 and the fold induction at 50 µM (E. cloacae; planktonic, cutoff for positive-scoring molecules 3-fold increase, read-out: AK-based Prestwick Library Screening Results, E. cloacae (fold increase in extracellular AK activity)) was 0.7. For the same compound, the fold induction at 50 µM (P. aeruginosa; planktonic, cutoff for positive-scoring molecules 3-fold increase, read-out: AK-based Prestwick Library Screening Results, P. aeruginosa (fold increase in extracellular AK activity)) was 0.6, the fold induction at 50 µM ([1]; planktonic, cutoff for positive-scoring molecules 3-fold increase, read-out: AK-based Prestwick Library Screening Results, S. aureus (fold increase in extracellular AK activity)) was 0.6 and the fold induction at 50 µM (E. coli; planktonic, cutoff for positive-scoring molecules 3-fold increase, read-out: AK-based Prestwick Library Screening Results, E. coli (fold increase in extracellular AK activity)) was 0.6. It also gave a fold induction at 50 µM ([2]; planktonic, cutoff for positive-scoring molecules 3-fold increase, read-out: AK-based Prestwick Library Screening Results, A. baumannii (fold increase in extracellular AK activity)) of 0.7.
Work on `Cc1ccccc1OCC(O)CO` (stereo not shown) [Mephenesin] yielded a fold induction at 50 µM (E. faecium; 384-well format, cutoff for positive-scoring molecules 3-fold increase, read-out: AK-based Prestwick Library Screening Results, E. faecium (increase in extracellular AK activity)) of 1, a fold induction at 50 µM (K. pneumoniae; 384-well format, cutoff for positive-scoring molecules 3-fold increase, read-out: AK-based Prestwick Library Screening Results, K. pneumoniae (increase in extracellular AK activity)) of 0.7 and a fold induction at 50 µM (E. cloacae; 384-well format, cutoff for positive-scoring molecules 3-fold increase, read-out: AK-based Prestwick Library Screening Results, E. cloacae (increase in extracellular AK activity)) of 0.8. For the same compound, the fold induction at 50 µM (P. aeruginosa; 384-well format, cutoff for positive-scoring molecules 3-fold increase, read-out: AK-based Prestwick Library Screening Results, P. aeruginosa (increase in extracellular AK activity)) was 0.6, the fold induction at 50 µM ([1]; 384-well format, cutoff for positive-scoring molecules 3-fold increase, read-out: AK-based Prestwick Library Screening Results, S. aureus (increase in extracellular AK activity)) was 0.8 and the fold induction at 50 µM (E. coli; 384-well format, cutoff for positive-scoring molecules 3-fold increase, read-out: AK-based Prestwick Library Screening Results, E. coli (increase in extracellular AK activity)) was 0.7. The fold induction at 50 µM ([2]; 384-well format, cutoff for positive-scoring molecules 3-fold increase, read-out: AK-based Prestwick Library Screening Results, A. baumannii (increase in extracellular AK activity)) was 0.8.
`CCC1(c2ccccc2)NC(=O)N(C)C1=O` (stereo not shown) [Mephenytoin] gave a fold induction at 50 µM (E. faecium; [10]) of 1, a fold induction at 50 µM (K. pneumoniae; [11]) of 1 and a fold induction at 50 µM (E. cloacae; [12]) of 1.3. For the same compound, the fold induction at 50 µM (P. aeruginosa; [13]) was 1, the fold induction at 50 µM [1, 14] was 1.1 and the fold induction at 50 µM (E. coli; [15]) was 1.1. The fold induction at 50 µM [2, 16] was 1.3.
Work on `CCCNC(C)(C)COC(=O)c1ccccc1` [Meprylcaine hydrochloride] yielded a fold induction at 50 µM (E. faecium; [10]) of 0.9, a fold induction at 50 µM (K. pneumoniae; [11]) of 0.7 and a fold induction at 50 µM (E. cloacae; [12]) of 0.8. It also gave a fold induction at 50 µM (P. aeruginosa; [13]) of 0.9, a fold induction at 50 µM [1, 14] of 0.6 and a fold induction at 50 µM (E. coli; [15]) of 0.9. For the same compound, the fold induction at 50 µM [2, 16] was 0.8.
